# Source: the NIST ThermoML archive (doi:10.1016/j.jct.2005.09.005)
# Numbers after ± are expanded uncertainties.
# Assay: molar heat capacity at constant pressure
# Settings: 101.33 kPa, Vacuum adiabatic calorimetry
structure (smiles),measurement,setting,value
[2H]O[2H] [water-d2],molar heat capacity at constant pressure,"155.87 K, Crystal",26.52 ± 0.22 J/K/mol
same,molar heat capacity at constant pressure,"158.32 K, Crystal",26.94 ± 0.22 J/K/mol
same,molar heat capacity at constant pressure,"160 K, Crystal",27.2 ± 0.22 J/K/mol
same,molar heat capacity at constant pressure,"160.81 K, Crystal",27.33 ± 0.22 J/K/mol
same,molar heat capacity at constant pressure,"163.26 K, Crystal",27.73 ± 0.22 J/K/mol
same,molar heat capacity at constant pressure,"165.71 K, Crystal",28.13 ± 0.22 J/K/mol
same,molar heat capacity at constant pressure,"168.15 K, Crystal",28.55 ± 0.22 J/K/mol
same,molar heat capacity at constant pressure,"170 K, Crystal",28.83 ± 0.23 J/K/mol
same,molar heat capacity at constant pressure,"170.6 K, Crystal",28.97 ± 0.23 J/K/mol
same,molar heat capacity at constant pressure,"173.05 K, Crystal",29.33 ± 0.23 J/K/mol
same,molar heat capacity at constant pressure,"175.5 K, Crystal",29.73 ± 0.23 J/K/mol
same,molar heat capacity at constant pressure,"177.94 K, Crystal",30.14 ± 0.23 J/K/mol
same,molar heat capacity at constant pressure,"180 K, Crystal",30.47 ± 0.23 J/K/mol
same,molar heat capacity at constant pressure,"180.39 K, Crystal",30.54 ± 0.23 J/K/mol
same,molar heat capacity at constant pressure,"182.83 K, Crystal",30.96 ± 0.23 J/K/mol
same,molar heat capacity at constant pressure,"185.28 K, Crystal",31.33 ± 0.23 J/K/mol
same,molar heat capacity at constant pressure,"187.72 K, Crystal",31.71 ± 0.23 J/K/mol
same,molar heat capacity at constant pressure,"190 K, Crystal",32.09 ± 0.23 J/K/mol
same,molar heat capacity at constant pressure,"190.17 K, Crystal",32.11 ± 0.23 J/K/mol
same,molar heat capacity at constant pressure,"192.61 K, Crystal",32.48 ± 0.23 J/K/mol
same,molar heat capacity at constant pressure,"195.05 K, Crystal",32.9 ± 0.23 J/K/mol
same,molar heat capacity at constant pressure,"197.5 K, Crystal",33.29 ± 0.23 J/K/mol
same,molar heat capacity at constant pressure,"199.99 K, Crystal",33.7 ± 0.23 J/K/mol
same,molar heat capacity at constant pressure,"200 K, Crystal",33.7 ± 0.23 J/K/mol
same,molar heat capacity at constant pressure,"202.44 K, Crystal",34.08 ± 0.23 J/K/mol
same,molar heat capacity at constant pressure,"204.88 K, Crystal",34.48 ± 0.23 J/K/mol
same,molar heat capacity at constant pressure,"207.33 K, Crystal",34.88 ± 0.23 J/K/mol
same,molar heat capacity at constant pressure,"210 K, Crystal",35.29 ± 0.23 J/K/mol
same,molar heat capacity at constant pressure,"210.91 K, Crystal",35.46 ± 0.23 J/K/mol
same,molar heat capacity at constant pressure,"213.05 K, Crystal",35.74 ± 0.23 J/K/mol
same,molar heat capacity at constant pressure,"215.49 K, Crystal",36.17 ± 0.23 J/K/mol
same,molar heat capacity at constant pressure,"217.93 K, Crystal",36.56 ± 0.23 J/K/mol
same,molar heat capacity at constant pressure,"220 K, Crystal",36.86 ± 0.23 J/K/mol
same,molar heat capacity at constant pressure,"220.38 K, Crystal",36.96 ± 0.24 J/K/mol
same,molar heat capacity at constant pressure,"222.82 K, Crystal",37.34 ± 0.24 J/K/mol
same,molar heat capacity at constant pressure,"225.26 K, Crystal",37.72 ± 0.24 J/K/mol
same,molar heat capacity at constant pressure,"227.71 K, Crystal",38.06 ± 0.24 J/K/mol
same,molar heat capacity at constant pressure,"230 K, Crystal",38.45 ± 0.24 J/K/mol
same,molar heat capacity at constant pressure,"230.15 K, Crystal",38.5 ± 0.24 J/K/mol
same,molar heat capacity at constant pressure,"232.58 K, Crystal",38.89 ± 0.24 J/K/mol
same,molar heat capacity at constant pressure,"235.03 K, Crystal",39.22 ± 0.24 J/K/mol
same,molar heat capacity at constant pressure,"237.47 K, Crystal",39.55 ± 0.24 J/K/mol
same,molar heat capacity at constant pressure,"239.91 K, Crystal",39.99 ± 0.24 J/K/mol
same,molar heat capacity at constant pressure,"240 K, Crystal",40.05 ± 0.24 J/K/mol
same,molar heat capacity at constant pressure,"242.35 K, Crystal",40.38 ± 0.24 J/K/mol
same,molar heat capacity at constant pressure,"244.78 K, Crystal",40.92 ± 0.24 J/K/mol
same,molar heat capacity at constant pressure,"247.23 K, Crystal",41.27 ± 0.24 J/K/mol
same,molar heat capacity at constant pressure,"249.73 K, Crystal",41.6 ± 0.24 J/K/mol
same,molar heat capacity at constant pressure,"250 K, Crystal",41.64 ± 0.24 J/K/mol
same,molar heat capacity at constant pressure,"252.17 K, Crystal",41.99 ± 0.24 J/K/mol
same,molar heat capacity at constant pressure,"254.61 K, Crystal",42.32 ± 0.24 J/K/mol
same,molar heat capacity at constant pressure,"257.04 K, Crystal",42.71 ± 0.24 J/K/mol
same,molar heat capacity at constant pressure,"257.41 K, Crystal",42.2 ± 0.24 J/K/mol
same,molar heat capacity at constant pressure,"259.48 K, Crystal",43.1 ± 0.24 J/K/mol
same,molar heat capacity at constant pressure,"260 K, Crystal",43.16 ± 0.24 J/K/mol
same,molar heat capacity at constant pressure,"261.91 K, Crystal",43.48 ± 0.24 J/K/mol
same,molar heat capacity at constant pressure,"262.39 K, Crystal",43.37 ± 0.24 J/K/mol
same,molar heat capacity at constant pressure,"264.34 K, Crystal",43.87 ± 0.24 J/K/mol
same,molar heat capacity at constant pressure,"266.76 K, Crystal",44.33 ± 0.24 J/K/mol
same,molar heat capacity at constant pressure,"269.18 K, Crystal",44.87 ± 0.24 J/K/mol
same,molar heat capacity at constant pressure,"270 K, Crystal",44.55 ± 0.24 J/K/mol
same,molar heat capacity at constant pressure,"271.59 K, Crystal",45.53 ± 0.25 J/K/mol
same,molar heat capacity at constant pressure,"273.99 K, Crystal",47.53 ± 0.25 J/K/mol
same,molar heat capacity at constant pressure,"274.34 K, Liquid",85.72 ± 0.25 J/K/mol
same,molar heat capacity at constant pressure,"276.82 K, Crystal",45.8 ± 0.25 J/K/mol
same,molar heat capacity at constant pressure,"276.82 K, Liquid",85.38 ± 0.25 J/K/mol
same,molar heat capacity at constant pressure,"278.53 K, Liquid",85.14 ± 0.25 J/K/mol
same,molar heat capacity at constant pressure,"280 K, Liquid",84.97 ± 0.25 J/K/mol
same,molar heat capacity at constant pressure,"282.13 K, Liquid",84.72 ± 0.25 J/K/mol
same,molar heat capacity at constant pressure,"285.21 K, Liquid",84.64 ± 0.25 J/K/mol
same,molar heat capacity at constant pressure,"286.94 K, Liquid",84.47 ± 0.25 J/K/mol
same,molar heat capacity at constant pressure,"289.3 K, Liquid",84.14 ± 0.25 J/K/mol
same,molar heat capacity at constant pressure,"290 K, Liquid",84.05 ± 0.25 J/K/mol
same,molar heat capacity at constant pressure,"291.67 K, Liquid",83.97 ± 0.25 J/K/mol
same,molar heat capacity at constant pressure,"294.02 K, Liquid",83.81 ± 0.25 J/K/mol
same,molar heat capacity at constant pressure,"296.38 K, Liquid",83.72 ± 0.25 J/K/mol
same,molar heat capacity at constant pressure,"298.15 K, Liquid",83.47 ± 0.25 J/K/mol
same,molar heat capacity at constant pressure,"298.72 K, Liquid",83.56 ± 0.25 J/K/mol
same,molar heat capacity at constant pressure,"300 K, Liquid",83.39 ± 0.25 J/K/mol
same,molar heat capacity at constant pressure,"301.66 K, Liquid",83.39 ± 0.25 J/K/mol
same,molar heat capacity at constant pressure,"305.18 K, Liquid",83.14 ± 0.25 J/K/mol
same,molar heat capacity at constant pressure,"308.67 K, Liquid",83.08 ± 0.28 J/K/mol
same,molar heat capacity at constant pressure,"310 K, Liquid",82.96 ± 0.28 J/K/mol
same,molar heat capacity at constant pressure,"312.17 K, Liquid",82.92 ± 0.28 J/K/mol
same,molar heat capacity at constant pressure,"315.64 K, Liquid",82.85 ± 0.28 J/K/mol
same,molar heat capacity at constant pressure,"319.1 K, Liquid",82.78 ± 0.28 J/K/mol
same,molar heat capacity at constant pressure,"320 K, Liquid",82.7 ± 0.28 J/K/mol
same,molar heat capacity at constant pressure,"322.54 K, Liquid",82.69 ± 0.28 J/K/mol
same,molar heat capacity at constant pressure,"325.97 K, Liquid",82.58 ± 0.28 J/K/mol
same,molar heat capacity at constant pressure,"329.39 K, Liquid",82.62 ± 0.28 J/K/mol
same,molar heat capacity at constant pressure,"330 K, Liquid",82.52 ± 0.28 J/K/mol
same,molar heat capacity at constant pressure,"332.72 K, Liquid",82.55 ± 0.28 J/K/mol
same,molar heat capacity at constant pressure,"336.11 K, Liquid",82.57 ± 0.28 J/K/mol
same,molar heat capacity at constant pressure,"339.47 K, Liquid",82.65 ± 0.28 J/K/mol
same,molar heat capacity at constant pressure,"340 K, Liquid",82.67 ± 0.28 J/K/mol
same,molar heat capacity at constant pressure,"342.82 K, Liquid",82.74 ± 0.28 J/K/mol
same,molar heat capacity at constant pressure,"346.15 K, Liquid",82.71 ± 0.28 J/K/mol
same,molar heat capacity at constant pressure,"350 K, Liquid",82.8 ± 0.28 J/K/mol
